Where two headings read alike, the source gives them in different places.
Columns and labels:
[1] = test system: HT29 colorectal carcinoma cells; experiment: Cytostatic assay, HT29; type: cell-based; details: Homo sapiens, HT-29; Table 3
Procedure: (§1) To each well of a 96-well microtiter plate were added 5-7.5×10^4 cells and a given amount of the test compound. The cells were allowed to proliferate for 48 h to 96 h (depending on the nature of the cell line) at 37° C. in a humidified CO2-controlled atmosphere. At the end of the incubation period, the cells were counted in a Coulter Counter (Coulter Electronics Ltd, Harpenden Herts, United Kingdom).

PLC/PRF/5 hepatoma cells = experiment: Cytostatic assay, PLC/PRF/5; type: cell-based; details: Homo sapiens, Table 4
Procedure: as §1

[2] = test system: FM3A mammary carcinoma cells; experiment: Cytostatic assay, FM3A; type: cell-based, murine; details: Mus musculus, Table 3
Procedure: as §1

[3] = test system: DU145 (UZ) prostate cancer cells; experiment: Cytostatic assay, DU145 (UZ); type: cell-based; details: Homo sapiens, DU-145; Table 4
Procedure: as §1

[4] = test system: Caki-1 kidney carcinoma cells; experiment: Cytostatic assay, Caki-1; type: cell-based; details: Homo sapiens, Table 3
Procedure: as §1

[5] = test system: PC-3 (UZ) prostate cancer cells; experiment: Cytostatic assay, PC-3 (UZ); type: cell-based; details: Table 4
Procedure: as §1

[6] = test system: 22Rv1 (UZ) prostate cancer cells; experiment: Cytostatic assay, 22Rv1 (UZ); type: cell-based; details: Homo sapiens, Table 4
Procedure: as §1

[7] = test system: THP-1, human monocytic cells; experiment: Cytostatic assay, THP-1; type: cell-based; details: Table 2
Procedure: as §1

[8] = test system: MCF-7 mammary carcinoma cells; experiment: Cytostatic assay, MCF-7; type: cell-based; details: Homo sapiens, MCF7; Table 3
Procedure: as §1

[9] = test system: OST TK- osteosarcoma cells; experiment: Cytostatic assay, OST TK-; type: cell-based; details: Homo sapiens; Table 3
Procedure: as §1

C8166 cells = experiment: Cytostatic assay, C8166; type: cell-based; details: Homo sapiens, Table 2
Procedure: as §1

HepG2C3A hepatoma cells = experiment: Cytostatic assay, HepG2C3A; type: cell-based; details: Homo sapiens, HepG2/C3A; Table 4
Procedure: as §1

[10] = test system: U937, human monocytic cells; experiment: Cytostatic assay, U937; type: cell-based; details: U-937, Table 2
Procedure: as §1

[11] = test system: PNT1A (UZ) prostate cells; experiment: Cytostatic assay, PNT1A (UZ); type: cell-based; details: Homo sapiens, Table 4
Procedure: as §1

[12] = test system: 293T embryonic kidney cells; experiment: Cytostatic assay, 293T; type: cell-based; details: Homo sapiens, HEK-293T; Table 3
Procedure: as §1

[13] = test system: LNCaP (UZ) prostate cancer cells; experiment: Cytostatic assay, LNCaP (UZ); type: cell-based; details: Homo sapiens, Table 4
Procedure: as §1

Molt4/C8 cells = experiment: Cytostatic assay, Molt4/C8; type: cell-based; details: Table 2
Procedure: as §1

L1210 cells = experiment: Cytostatic assay, L1210; type: cell-based; details: Mus musculus, Table 2
Procedure: as §1

[14] = test system: HEL embryonic lung fibroblast cells; experiment: Cytostatic assay, HEL; type: cell-based; details: Homo sapiens, Table 3
Procedure: as §1

HUT-78 cells = experiment: Cytostatic assay, HUT-78; type: cell-based; details: Homo sapiens, HuT78; Table 2
Procedure: as §1

Huh-7 hepatoma cells = experiment: Cytostatic assay, Huh-7; type: cell-based; details: Homo sapiens, Table 4
Procedure: as §1

MT-2 cells = experiment: Cytostatic assay, MT-2; type: cell-based; details: Homo sapiens, MT2; Table 2
Procedure: as §1

BPH-1 (UZ) = experiment: Cytostatic assay, BPH-1 (UZ); type: cell-based; details: Homo sapiens, Table 4
Procedure: as §1

[15] = test system: HeLa cervix carcinoma cells; experiment: Cytostatic assay, HeLa; type: cell-based, human; details: Homo sapiens
Procedure: as §1

Sup T1 cells = experiment: Cytostatic assay, Sup T1; type: cell-based; details: Homo sapiens, Table 2, read-out: Cytostatic activity (μM) Sup T 1
Procedure: as §1

[16] = test system: Caki-2 kidney carcinoma cells; experiment: Cytostatic assay, Caki-2; type: cell-based; details: Homo sapiens, Table 3
Procedure: as §1

MT-4 cells = experiment: Cytostatic assay, MT-4; type: cell-based; details: Homo sapiens, MT4; Table 2
Procedure: as §1

CEM cells = experiment: Cytostatic assay, CEM; type: cell-based; details: for IC50: Homo sapiens, CCRF-CEM; for Ratio (tumor cell selectivity): ratio IC50 HeLa / IC50 CEM, Table 7
Procedure: as §1

[17] = test system: HL60, human leukemia cells; experiment: Cytostatic assay, HL-60; type: cell-based; details: Table 2
Procedure: as §1

[18] = test system: BAEC aortic endothelial cells; experiment: Cytostatic assay, BAEC; type: cell-based, bovine; details: Bos taurus, Table 3
Procedure: as §1

[19] = test system: PC3 (rega) prostate cancer cells; experiment: Cytostatic assay, PC3 (rega); type: cell-based; details: Table 4
Procedure: as §1

U87 glioma cells = experiment: Cytostatic assay, U87; type: cell-based; details: Homo sapiens, U-87 MG; Table 3
Procedure: as §1

[20] = test system: Raji, human B-lymphoma cells; experiment: Cytostatic assay, Raji; type: cell-based; details: Table 2
Procedure: as §1

[21] = Table 3, read-out: Cytostatic activity (μM) Hela
[22] = Table 1a, read-out: IC50 μM (CEM)
[23] = Table 2, read-out: Cytostatic activity (μM) CEM
[24] = HeLa cells, Table 7, 5-arylthiomethyl-substituted 2-amino-3-carboxymethylthiophenes, read-out: IC50 (μM) HeLa
[25] = CEM cells, Table 7, 5-arylthiomethyl-substituted 2-amino-3-carboxymethylthiophenes, read-out: IC50 (μM) CEM

SMILES	IC50 [1] [µM]	IC50 (PLC/PRF/5 hepatoma cells) [µM]	IC50 [2] [µM]	IC50 [3] [µM]	IC50 [4] [µM]	IC50 [5] [µM]	IC50 [6] [µM]	IC50 [7] [µM]	IC50 [8] [µM]	IC50 [9] [µM]	IC50 (C8166 cells) [µM]	IC50 (HepG2C3A hepatoma cells) [µM]	IC50 [10] [µM]	IC50 [11] [µM]	IC50 [12] [µM]	IC50 [13] [µM]	IC50 (Molt4/C8 cells) [µM]	IC50 (L1210 cells) [µM]	IC50 [14] [µM]	IC50 (HUT-78 cells) [µM]	also measured
CCOC(=O)c1cc(CCc2cc(OC)ccc2OC)sc1N [TR587, 2-Amino-5-[2-(2,5-dimethoxy-phenyl)-ethyl]-thiophene-3-carboxylic acid ethyl ester]	1.7 ± 0.14	0.26 ± 0.15	2 ± 0.28	1.4 ± 0.21	1.4 ± 0.5	0.52 ± 0.007	0.19 ± 0.11	0.71 ± 0.18	0.83 ± 0.35	0.51 ± 0.42	0.82 ± 0.16	1.1 ± 0.49	0.92 ± 0.08	0.41 ± 0.028	1 ± 0.11	0.35 ± 0.064	1.1 ± 1	1.2 ± 0.4	0.27 ± 0.22	0.43 ± 0.24	IC50 (Huh-7 hepatoma cells): 0.71 ± 0.35 µM; IC50 (MT-2 cells): 0.7 ± 0.3 µM; IC50 (BPH-1 (UZ)): 0.39 ± 0.007 µM; IC50 [15, 21]: 0.33 ± 0.028 µM; IC50 (Sup T1 cells): 0.54 ± 0.007 µM; IC50 [16]: 3.2 ± 2.4 µM; IC50 (MT-4 cells): 1.7 ± 0.59 µM; IC50 (CEM cells; [22]): 0.76 µM; IC50 (CEM cells; [23]): 0.76 ± 0.48 µM; IC50 [17]: 0.46 ± 0.35 µM; IC50 [18]: 0.93 ± 0.67 µM; IC50 [19]: 0.33 ± 0.099 µM; IC50 (U87 glioma cells): 1.6 ± 1.1 µM; IC50 [20]: 1.8 ± 0.42 µM
COC(=O)c1cc(CCc2cccnc2)sc1N [TR597, 2-Amino-5-(2-pyridin-3-yl-ethyl)-thiophene-3-carboxylic acid methyl ester]	> 100	> 100	164 ± 30	60 ± 21	7.7 ± 0.5	12 ± 5.5	≥ 100	> 200	71 ± 30	≥ 111	≥ 200	> 100	> 200	> 100	> 100	7.4 ± 0.75	47 ± 15	235 ± 49	≥ 100	59 ± 33	IC50 (Huh-7 hepatoma cells): 78 ± 32 µM; IC50 (MT-2 cells): 38 ± 15 µM; IC50 (BPH-1 (UZ)): > 100 µM; IC50 [15, 21]: 170 ± 25 µM; IC50 (Sup T1 cells): 147 ± 66 µM; IC50 [16]: > 200 µM; IC50 (MT-4 cells): > 100 µM; IC50 (CEM cells; [22]): 50 µM; IC50 (CEM cells; [23]): 50 ± 6.4 µM; IC50 [17]: 63 ± 15 µM; IC50 [18]: > 100 µM; IC50 [19]: 6.3 ± 4.7 µM; IC50 (U87 glioma cells): > 100 µM; IC50 [20]: > 100 µM
COC(=O)c1cc(-c2ccccc2OC)sc1N [TR581, 2-Amino-5-(2-methoxy-phenyl)-thiophene-3-carboxylic acid methyl ester]	43 ± 1.4	36 ± 4.2	275 ± 206	35 ± 6.4	39 ± 2.1	28 ± 4.9	42 ± 7.6	69 ± 13	29 ± 20	45 ± 4.2	149 ± 14	38 ± 27	82 ± 7.1	58 ± 13	72 ± 4.9	9.7 ± 5.1	39 ± 8	204 ± 85	24 ± 2.1	152 ± 44	IC50 (Huh-7 hepatoma cells): 59 ± 17 µM; IC50 (MT-2 cells): 103 ± 52 µM; IC50 (BPH-1 (UZ)): 50 ± 5.7 µM; IC50 [15, 21]: 41 ± 4.9 µM; IC50 (Sup T1 cells): 45 ± 31 µM; IC50 [16]: 28 ± 18 µM; IC50 (MT-4 cells): 36 ± 15 µM; IC50 (CEM cells; [22]): 55 µM; IC50 (CEM cells; [23]): 55 µM; IC50 [17]: 16 ± 3.5 µM; IC50 [18]: 38 ± 2.1 µM; IC50 [19]: 26 ± 8.5 µM; IC50 (U87 glioma cells): 42 ± 5.7 µM; IC50 [20]: 59 ± 11 µM
COC(=O)c1cc(CSc2ccc(OC)cc2)sc1N [TJ130, Methyl 2-amino-5-((4-methoxyphenylthio)methyl)thiophene-3-carboxylate]	–	–	–	–	–	–	–	–	–	–	–	–	–	–	–	–	–	–	–	–	IC50 [15, 24]: 88 µM; IC50 ([15]; Table 1b, read-out: IC50 (μM) (HeLa)): 88 ± 10 µM; IC50 (CEM cells; [25]): 3.9 µM; IC50 (CEM cells; Table 1b, read-out: IC50 (μM) (CEM)): 3.9 ± 1.4 µM; Ratio (tumor cell selectivity) (CEM cells): 23
COC(=O)c1cc(CSc2ccccc2OC)sc1N [Compound D6, Methyl 2-amino-5-((2-methoxyphenylthio)methyl)thiophene-3-carboxylate]	–	–	–	–	–	–	–	–	–	–	–	–	–	–	–	–	–	–	–	–	IC50 [15, 24]: 94 µM; IC50 (CEM cells; [25]): 17 µM; Ratio (tumor cell selectivity) (CEM cells): 6

Source: patent US9278958B2, “Anti-cancer compounds” (KATHOLIEKE UNIVERSITEIT LEUVEN, priority 2012, dated 2016)
